We go through one compound from patent US20060257400A1, “COMBINATION THERAPY” (Bristol-Myers Squibb Company, priority 2005, published 2006).

In this test the test system is Human L2987 lung carcinomas. The test is described as follows: Antitumor testing, s.c. L2987 xenografts in nude mice. In kind it is in vivo. To be noted: athymic nude mice, s.c. L2987 tumors established at 100-200 mm^3; Compound I 100 mg/Kg daily; Erbitux 1 mg per mouse every three days, 5 doses; combination given essentially simultaneously. The procedure:
Animals. […] They were fed food and water ad libitum. All studies involving these animals were conducted in accordance with NIH (Bethesda, Md.) and Bristol Myers-Squibb animal care and use guidelines.
Tumors. […] All efficacy testing involved tumors implanted s.c. in nude mice.

Consider `Cc1cc2c(F)c(Oc3ncnn4cc(OC[C@@H](C)OC(=O)[C@H](C)N)c(C)c34)ccc2[nH]1` [Compound I], for which the “delay of tumor growth to target tumor size of 500 mm^3 compared to vehicle treated control group” value is on record as “ten”.
